EP4105218A1, “SUBSTITUTED PYRROLO[2,3-D] PYRIMIDINES, THEIR PREPARATION AND THEIR THERAPEUTIC APPLICATION” (SANOFI, priority 2021, dated 2022)

How the values were obtained:
LRRK2(human) WT = LRRK2(human) WT (Homo sapiens, UniProt Q5S007); assay: LRRK2 WT assay (assay A), Lanthascreen TR-FRET; format: biochemical; details: assay A (values without "*"): full-length LRRK2 wild type, 500uM ATP
LRRK2-G2019S(human) = target: T1, LRRK2-G2019S(human) (Homo sapiens, UniProt Q5S007, G2019S); assay: LRRK2-G2019S Kinase activity assay (Lanthascreen TR-FRET); format: biochemical; details: full-length LRRK2 G2019S, LRRKtide substrate, 1.1mM ATP
T1 construct: DYKDDDDK (FLAG)
T1 sequence (Q5S007 whole entry G2019S): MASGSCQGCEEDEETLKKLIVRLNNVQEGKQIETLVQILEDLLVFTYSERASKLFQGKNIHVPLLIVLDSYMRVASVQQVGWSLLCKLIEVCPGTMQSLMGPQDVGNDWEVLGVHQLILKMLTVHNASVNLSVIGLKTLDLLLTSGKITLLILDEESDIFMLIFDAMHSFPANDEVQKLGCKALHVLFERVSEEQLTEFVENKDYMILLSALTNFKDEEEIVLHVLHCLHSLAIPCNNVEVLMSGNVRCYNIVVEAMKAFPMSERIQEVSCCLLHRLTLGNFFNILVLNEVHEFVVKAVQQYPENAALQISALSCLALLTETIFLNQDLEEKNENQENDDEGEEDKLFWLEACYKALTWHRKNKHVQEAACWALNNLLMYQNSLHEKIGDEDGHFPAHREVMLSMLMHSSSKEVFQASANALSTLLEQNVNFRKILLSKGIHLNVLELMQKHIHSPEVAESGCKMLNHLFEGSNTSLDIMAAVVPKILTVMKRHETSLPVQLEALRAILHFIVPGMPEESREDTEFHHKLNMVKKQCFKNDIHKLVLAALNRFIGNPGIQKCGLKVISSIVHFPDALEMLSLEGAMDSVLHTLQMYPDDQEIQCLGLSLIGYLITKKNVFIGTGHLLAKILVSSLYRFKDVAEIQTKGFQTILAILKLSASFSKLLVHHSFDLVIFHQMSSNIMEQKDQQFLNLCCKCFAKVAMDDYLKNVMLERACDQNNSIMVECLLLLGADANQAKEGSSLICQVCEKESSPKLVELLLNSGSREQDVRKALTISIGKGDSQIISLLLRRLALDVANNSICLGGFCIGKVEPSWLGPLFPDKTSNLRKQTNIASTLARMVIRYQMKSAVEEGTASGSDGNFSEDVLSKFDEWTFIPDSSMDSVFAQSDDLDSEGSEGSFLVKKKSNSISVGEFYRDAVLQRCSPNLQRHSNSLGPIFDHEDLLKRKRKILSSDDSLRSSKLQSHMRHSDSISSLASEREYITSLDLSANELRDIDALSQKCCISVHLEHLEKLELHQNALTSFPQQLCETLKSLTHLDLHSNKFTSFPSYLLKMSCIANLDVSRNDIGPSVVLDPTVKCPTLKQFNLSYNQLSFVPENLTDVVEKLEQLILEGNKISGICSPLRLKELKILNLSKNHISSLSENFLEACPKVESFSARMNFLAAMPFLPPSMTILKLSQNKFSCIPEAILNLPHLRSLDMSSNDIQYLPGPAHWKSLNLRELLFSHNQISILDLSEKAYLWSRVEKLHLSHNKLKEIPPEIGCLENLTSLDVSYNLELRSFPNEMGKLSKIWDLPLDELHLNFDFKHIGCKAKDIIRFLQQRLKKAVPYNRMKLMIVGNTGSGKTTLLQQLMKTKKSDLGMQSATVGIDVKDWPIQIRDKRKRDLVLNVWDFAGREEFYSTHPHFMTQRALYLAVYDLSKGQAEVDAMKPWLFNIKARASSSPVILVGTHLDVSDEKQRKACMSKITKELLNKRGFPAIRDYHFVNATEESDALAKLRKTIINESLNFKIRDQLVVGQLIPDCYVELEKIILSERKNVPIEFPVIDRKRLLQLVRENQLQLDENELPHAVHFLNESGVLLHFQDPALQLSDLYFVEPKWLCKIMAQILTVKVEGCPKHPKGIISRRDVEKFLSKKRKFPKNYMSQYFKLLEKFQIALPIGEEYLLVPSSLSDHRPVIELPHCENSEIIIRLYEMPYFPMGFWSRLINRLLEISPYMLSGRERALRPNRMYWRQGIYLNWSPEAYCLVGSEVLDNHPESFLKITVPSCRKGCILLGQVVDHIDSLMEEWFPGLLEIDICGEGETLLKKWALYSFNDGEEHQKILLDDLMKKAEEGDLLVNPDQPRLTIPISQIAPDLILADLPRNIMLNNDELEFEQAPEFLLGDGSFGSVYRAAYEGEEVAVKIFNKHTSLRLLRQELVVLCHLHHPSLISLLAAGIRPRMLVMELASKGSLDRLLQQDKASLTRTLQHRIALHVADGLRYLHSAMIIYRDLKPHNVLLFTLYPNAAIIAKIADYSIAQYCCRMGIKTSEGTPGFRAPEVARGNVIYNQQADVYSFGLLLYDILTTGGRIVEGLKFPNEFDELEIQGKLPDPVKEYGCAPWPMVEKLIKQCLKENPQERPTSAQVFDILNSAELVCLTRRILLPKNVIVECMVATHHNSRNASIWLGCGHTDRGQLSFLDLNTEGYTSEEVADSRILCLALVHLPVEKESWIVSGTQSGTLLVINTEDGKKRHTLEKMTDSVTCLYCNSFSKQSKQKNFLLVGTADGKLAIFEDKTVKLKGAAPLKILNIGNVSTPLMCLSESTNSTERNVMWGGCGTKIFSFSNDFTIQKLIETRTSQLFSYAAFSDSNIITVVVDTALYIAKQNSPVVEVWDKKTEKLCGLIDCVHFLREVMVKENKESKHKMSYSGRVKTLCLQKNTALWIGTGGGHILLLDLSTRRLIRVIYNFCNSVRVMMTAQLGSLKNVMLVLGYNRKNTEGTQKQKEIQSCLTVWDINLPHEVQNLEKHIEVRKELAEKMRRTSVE
Protocol: LRRK2-G2019S Kinase activity assay: The measurements of the activities were made using a LRRK2-G2019S(human) Kinase activity assay as described hereunder. The potency of compounds was evaluated in vitro using the Lanthascreen® technology (ThermoFisher Scientific).
The biological assay requires the […]-tagged full-length LRRK2 G2019S protein, the fluorescent peptide substrate named LRRKtide or ERM ([…] supplied by PolyPeptide Group), the ATP substrate, and different concentrations of test compounds. In a typical experiment, the reaction assay buffer contains 50mM Tris pH8.2, 1mM EGTA, 2.5mM MgCl2, 0.05% Triton X100, 0.15% BSA and 1mM DTT. The detection of the assay is performed using 1nM Terbium labeled anti-phospho-LRRKtide (ThermoFisher Scientific) diluted in a TR-FRET buffer (ThermoFisher Scientific).
The experimental procedure was performed with Greiner small volume® 384-well. The assay is started by a pre-incubation step of full-length LRRK2 G2019S mutant protein with reaction assay buffer and a dilution series of test compound for at least 30 minutes at room temperature. The working solution of compounds was prepared in a separate Greiner microplate.
The kinase reaction was initiated by addition of the ATP/LRRKtide substrate mix diluted in the reaction assay buffer. The reaction mix was incubated for at least 10 minutes at room temperature (initial velocity conditions). Reaction was stopped by addition of Terbium labeled anti-phospho-LRRKtide diluted into the detection buffer supplemented with EDTA (ThermoFisher Scientific). Plates are incubated for at least 30 minutes at room temperature and read on an Envision™ multimode plate reader (PerkinElmer) with LanthaScreen™. The TR-FRET 520:495 nm emission ratio was calculated and used to determine the IC50 value from a dose response curve fit to the 4-parameter logistic equation. The activity with respect to LRRK2 kinase in this test is given by the concentration which inhibits 50% of the LRRK2 activity (or IC50) in nM.

Chain of LRRK2(human) WT (Q5S007 whole entry): as the sequence (Q5S007 whole entry G2019S) above, with S2019G counted along it

SMILES	IC50 (LRRK2(human) WT)	IC50 (LRRK2-G2019S(human))
CC(=O)N1CC(Oc2nn(C)cc2Nc2ncc3cc(C#N)n([C@H]4COC[C@@H]4C)c3n2)C1(C)C (single isomer, unassigned) [Example 18]	2 nM	2 nM
[2H]C([2H])([2H])n1cc(Nc2ncc3cc(C#N)n(C(C)COC)c3n2)c(OC2COC2C)n1 (single isomer, unassigned) [Example 89, 7-[(1S)-2-methoxy-1-methyl-ethyl]-2-[[3-[(2S,3R)-2-methyloxetan-3-yl]oxy-1-(methyl-d3)pyrazol-4-yl]amino]pyrrolo[2,3-d]pyrimidine-6-carbonitrile or 7-[(1S)-2-methoxy-1-methyl-ethyl]-2-[[3-[(2R,3S)-2-methyloxetan-3-yl]oxy-1-(methyl-d3)pyrazol-4-yl]amino]pyrrolo[2,3-d]pyrimidine-6-carbonitrile]	–	5 nM
COCC(C)n1c(C#N)cc2cnc(Nc3cn(C)nc3OC3COC3C)nc21 (single isomer, unassigned) [Example 87, 7-[(1S)-2-methoxy-1-methyl-ethyl]-2-[[1-methyl-3-[(2S, 3R)-2-methyloxetan-3-yl]oxy-pyrazol-4-yl]amino]pyrrolo[2,3-d]pyrimidine-6-carbonitrile or 7-[(1S)-2-methoxy-1-methyl-ethyl]-2-[[1-methyl-3-[(2R, 3S)-2-methyloxetan-3-yl]oxy-pyrazol-4-yl]amino]pyrrolo[2,3-d]pyrimidine-6-carbonitrile]	–	5 nM
CC(=O)N1CC(Oc2nn(C)cc2Nc2ncc3cc(C#N)n([C@H]4COC[C@@H]4C)c3n2)C1(C)C (single isomer, unassigned) [Example 17]	3 nM	3 nM
